Experimental data taken from the NIST ThermoML archive (doi:10.1016/j.jct.2016.10.023).

Test: xn = mol fraction of the nth substance listed
Conditions: Constant-volume piezometry

CCCCC [pentane] + CCCO
Conditions | mass density [kg/m3]
393.15 K, 25038 kPa, Liquid, x1 = 0.5 | 629.68
393.15 K, 36012 kPa, Liquid, x1 = 0.8 | 598.57
393.15 K, 44637 kPa, Liquid, x1 = 0.8 | 608.08
395.15 K, 1157 kPa, Liquid, x1 = 0.8 | 524.69
398.15 K, 2324 kPa, Liquid, x1 = 0.8 | 524.59
403.15 K, 905 kPa, Gas, x1 = 0.8 | 22.65
403.15 K, 4215 kPa, Liquid, x1 = 0.8 | 524.43
403.15 K, 4306 kPa, Liquid, x1 = 0.2 | 640.49
403.15 K, 5622 kPa, Liquid, x1 = 0.5 | 578.69
403.15 K, 10647 kPa, Liquid, x1 = 0.5 | 591.27
403.15 K, 14687 kPa, Liquid, x1 = 0.8 | 552.29
403.15 K, 15313 kPa, Liquid, x1 = 0.2 | 662.74
403.15 K, 15471 kPa, Liquid, x1 = 0.5 | 601.98
403.15 K, 19586 kPa, Liquid, x1 = 0.5 | 610.45
403.15 K, 25962 kPa, Liquid, x1 = 0.8 | 574.02
403.15 K, 30841 kPa, Liquid, x1 = 0.5 | 629.25
403.15 K, 42147 kPa, Liquid, x1 = 0.8 | 598.16
413.15 K, 944 kPa, Gas, x1 = 0.8 | 22.64
413.15 K, 2137 kPa, Liquid, x1 = 0.5 | 551.89
413.15 K, 2268 kPa, Liquid, x1 = 0.8 | 499.34
413.15 K, 7884 kPa, Liquid, x1 = 0.8 | 524.12
413.15 K, 10313 kPa, Liquid, x1 = 0.5 | 578.32
413.15 K, 10612 kPa, Liquid, x1 = 0.2 | 640.04
413.15 K, 15843 kPa, Liquid, x1 = 0.5 | 590.88
413.15 K, 19245 kPa, Liquid, x1 = 0.8 | 551.94
413.15 K, 21025 kPa, Liquid, x1 = 0.5 | 601.58
413.15 K, 22059 kPa, Liquid, x1 = 0.2 | 662.26
413.15 K, 24988 kPa, Liquid, x1 = 0.5 | 610.04
413.15 K, 31136 kPa, Liquid, x1 = 0.8 | 573.65
413.15 K, 36585 kPa, Liquid, x1 = 0.5 | 628.82
414.15 K, 712 kPa, Gas, x1 = 0.5 | 15.6
415.15 K, 715 kPa, Gas, x1 = 0.5 | 15.6
416.15 K, 1229 kPa, Liquid, x1 = 0.2 | 618.66
416.15 K, 1374 kPa, Gas, x1 = 0.8 | 36.88
423.15 K, 737 kPa, Gas, x1 = 0.5 | 15.59
423.15 K, 982 kPa, Gas, x1 = 0.8 | 22.63
423.15 K, 1418 kPa, Gas, x1 = 0.8 | 36.86
423.15 K, 4884 kPa, Liquid, x1 = 0.2 | 618.37
423.15 K, 5404 kPa, Liquid, x1 = 0.8 | 499.05
423.15 K, 5815 kPa, Liquid, x1 = 0.5 | 551.55
423.15 K, 11608 kPa, Liquid, x1 = 0.8 | 523.8
423.15 K, 14921 kPa, Liquid, x1 = 0.5 | 577.95
423.15 K, 16915 kPa, Liquid, x1 = 0.2 | 639.59
423.15 K, 20842 kPa, Liquid, x1 = 0.5 | 590.5
423.15 K, 23598 kPa, Liquid, x1 = 0.8 | 551.59
423.15 K, 26392 kPa, Liquid, x1 = 0.5 | 601.18
423.15 K, 28950 kPa, Liquid, x1 = 0.2 | 661.79
423.15 K, 30447 kPa, Liquid, x1 = 0.5 | 609.63
423.15 K, 36411 kPa, Liquid, x1 = 0.8 | 573.27
426.15 K, 1900 kPa, Liquid, x1 = 0.8 | 469.29
432.15 K, 2018 kPa, Liquid, x1 = 0.5 | 522.19
433.15 K, 760 kPa, Gas, x1 = 0.5 | 15.59
433.15 K, 1023 kPa, Gas, x1 = 0.8 | 22.62
433.15 K, 1472 kPa, Gas, x1 = 0.8 | 36.85
433.15 K, 2403 kPa, Liquid, x1 = 0.5 | 522.16
433.15 K, 3158 kPa, Liquid, x1 = 0.2 | 598.39
433.15 K, 3619 kPa, Liquid, x1 = 0.8 | 469.11
433.15 K, 8493 kPa, Liquid, x1 = 0.8 | 498.76
433.15 K, 9460 kPa, Liquid, x1 = 0.5 | 551.22
433.15 K, 10196 kPa, Liquid, x1 = 0.2 | 617.96
433.15 K, 15352 kPa, Liquid, x1 = 0.8 | 523.48
433.15 K, 19645 kPa, Liquid, x1 = 0.5 | 577.58
433.15 K, 23135 kPa, Liquid, x1 = 0.2 | 639.15
433.15 K, 26095 kPa, Liquid, x1 = 0.5 | 590.11
433.15 K, 28096 kPa, Liquid, x1 = 0.8 | 551.24
433.15 K, 31893 kPa, Liquid, x1 = 0.5 | 600.78

Liquid
Conditions | mass density [kg/m3]
394.65 K, x1 = 0.8 | 524.7
396.15 K, x1 = 0.2 | 640.78
410.15 K, x1 = 0.8 | 499.43
410.75 K, x1 = 0.5 | 551.97
415.75 K, x1 = 0.2 | 618.67
425.55 K, x1 = 0.8 | 469.31
429.15 K, x1 = 0.2 | 598.54
431.15 K, x1 = 0.5 | 522.22
